Source: ChEMBL document CHEMBL1221354, “Synthesis of polyhydroxylated aromatics having amidation of piperazine nitrogen as HIV-1 integrase inhibitor” (Bioorg Med Chem Lett, 2010)
pIC50: −log10 of the molar value.

Each compound was assayed against Human immunodeficiency virus type 1 integrase (Human immunodeficiency virus 1, UniProt Q7ZJM1) (assay: Inhibition of HIV1 integrase strand transfer activity after 1 hr).
Chain of Human immunodeficiency virus type 1 integrase (Q7ZJM1 whole entry): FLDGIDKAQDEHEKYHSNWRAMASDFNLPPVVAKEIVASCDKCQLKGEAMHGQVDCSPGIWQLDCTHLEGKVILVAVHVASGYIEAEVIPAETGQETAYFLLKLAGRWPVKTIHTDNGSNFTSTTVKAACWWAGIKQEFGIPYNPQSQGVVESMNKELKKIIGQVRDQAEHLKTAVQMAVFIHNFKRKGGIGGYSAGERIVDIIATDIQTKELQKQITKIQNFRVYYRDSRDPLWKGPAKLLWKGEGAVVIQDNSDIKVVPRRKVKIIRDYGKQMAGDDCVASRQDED
In the case of `O=C(NCCCN1CCN(C(=O)/C=C/c2ccccc2)CC1)c1ccc(O)c(O)c1`, the pIC50 was < 4.00.
`Cc1ccc(/C=C/C(=O)N2CCN(CCCNC(=O)c3ccc(O)c(O)c3)CC2)cc1` was tested, and the pIC50 was < 4.00.
`O=C(NCCCN1CCN(C(=O)/C=C/c2ccc(Cl)cc2)CC1)c1ccc(O)c(O)c1` was tested, and the pIC50 was < 4.00.
`O=C(NCCCN1CCN(C(=O)/C=C/c2ccccc2Cl)CC1)c1ccc(O)c(O)c1` was tested, and the pIC50 was < 4.00.
`O=C(NCCCN1CCN(C(=O)/C=C/c2cccc(O)c2)CC1)c1ccc(O)c(O)c1` was tested, and the pIC50 was < 4.00.
`O=C(NCCCN1CCN(C(=O)/C=C/c2ccccc2)CC1)c1cc(O)c(O)c(O)c1` gave a pIC50 of 4.89.
With `Cc1ccc(/C=C/C(=O)N2CCN(CCCNC(=O)c3cc(O)c(O)c(O)c3)CC2)cc1` the pIC50 was 4.76.
For `O=C(NCCCN1CCN(C(=O)/C=C/c2ccc(Cl)cc2)CC1)c1cc(O)c(O)c(O)c1`, the pIC50 was 4.60.
`O=C(NCCCN1CCN(C(=O)/C=C/c2ccccc2Cl)CC1)c1cc(O)c(O)c(O)c1` was tested, and the pIC50 was 4.72.
For `O=C(NCCCN1CCN(C(=O)/C=C/c2ccccc2[N+](=O)[O-])CC1)c1cc(O)c(O)c(O)c1`, the pIC50 was 4.50.
Compound `O=C(NCCCN1CCN(C(=O)/C=C/c2cccc(O)c2)CC1)c1cc(O)c(O)c(O)c1` has a pIC50 of 4.81.
In the case of `O=C(O)C(=O)CC(=O)c1cc(OCc2ccccc2)cc(OCc2ccccc2)c1`, the pIC50 was 6.11.
